Experimental findings from patent US20240132431A1, “METHOD FOR ALKYLATING ACIDIC FUNCTIONAL GROUP” (Chugai Seiyaku Kabushiki Kaisha, priority 2021, published 2024) are described below.

In the test the target is T1, Bcl-2 protein (Recombinant Human Bcl-2 Protein) (Homo sapiens, UniProt P10415).
T1 construct: purchased Novus NBP2-34889
In words: Binding evaluation of mixture library compounds to Bcl-2 using AS-MS (affinity selection mass spectrometry). The note with it: for ASMS ratio (%) n = 1 / ASMS ratio (%) n = 2: AS-MS on the mixture of 1200 library compounds, ASMS Ratio(%)=(A−C)/B×100; for ASMS ratio (%) n = 1: replicate n = 1; for ASMS ratio (%) n = 2: replicate n = 2. In short, it runs like this: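 ASMS Ratio (%) was calculated as (A−C)/B×100, where A is the protein sample after SEC, B the protein-free sample without SEC and C the protein-free sample after SEC. Each compound was at […] in a 1200-member pool with 20 μM Bcl-2, incubated 1 h at 23° C.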

T1 sequence (P10415 whole entry): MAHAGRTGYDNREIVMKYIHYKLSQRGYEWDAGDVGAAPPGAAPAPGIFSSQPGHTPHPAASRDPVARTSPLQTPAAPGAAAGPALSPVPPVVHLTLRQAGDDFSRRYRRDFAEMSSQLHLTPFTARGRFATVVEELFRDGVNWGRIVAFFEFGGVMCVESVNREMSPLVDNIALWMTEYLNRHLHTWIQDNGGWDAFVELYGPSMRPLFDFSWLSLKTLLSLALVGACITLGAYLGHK

`CCOc1cccc(-c2ccc(CN3CCN(c4ccc(C(=O)NS(=O)(=O)c5ccc(NCCSc6ccccc6)c(C(F)(F)F)c5)nn4)CC3)c3ccccc23)c1` [B2R091-01, 6-[4-[[4-(3-Ethoxyphenyl)naphthalen-1-yl]methyl]piperazin-1-yl]-N-[4-(2-phenylsulfanylethylamino)-3-(trifluoromethyl)phenyl]sulfonylpyridazine-3-carboxamide]: the “ASMS ratio (%)” value (n = 1) is reported as −3.5% and the “ASMS ratio (%)” value (n = 2) is given as 1.8%.

As for `CCOc1cncc(-c2ccc(CN3CCN(c4ccc(C(=O)NS(=O)(=O)c5ccc(NCCSc6ccccc6)c(C(F)(F)F)c5)nn4)CC3)c3ccccc23)c1` [B2R092-01, 6-[4-[[4-(5-Ethoxypyridin-3-yl)naphthalen-1-yl]methyl]piperazin-1-yl]-N-[4-(2-phenylsulfanylethylamino)-3-(trifluoromethyl)phenyl]sulfonylpyridazine-3-carboxamide], the “ASMS ratio (%)” value is on record as 16.0% (n = 1) and −1.3% (n = 2).

Regarding `CCOc1cccc(-c2csc(CN3CCN(c4ccc(C(=O)NS(=O)(=O)c5ccc(NCCSc6ccccc6)c(C(F)(F)F)c5)nn4)CC3)c2)c1` [B2R093-01, 6-[4-[[4-(3-Ethoxyphenyl)thiophen-2-yl]methyl]piperazin-1-yl]-N-[4-(2-phenylsulfanylethylamino)-3-(trifluoromethyl)phenyl]sulfonylpyridazine-3-carboxamide], the “ASMS ratio (%)” value runs as follows: (n = 1) 56.5%; (n = 2) 0.0%.

For `CCOc1cncc(-c2csc(CN3CCN(c4ccc(C(=O)NS(=O)(=O)c5ccc(NCCSc6ccccc6)c(C(F)(F)F)c5)nn4)CC3)c2)c1` [B2R094-01, 6-[4-[[4-(5-Ethoxypyridin-3-yl)thiophen-2-yl]methyl]piperazin-1-yl]-N-[4-(2-phenylsulfanylethylamino)-3-(trifluoromethyl)phenyl]sulfonylpyridazine-3-carboxamide], the “ASMS ratio (%)” value came out at 18.8% (n = 1) and 11.9% (n = 2).

As for `CCOc1cccc(C#Cc2ccccc2CN2CCN(c3ccc(C(=O)NS(=O)(=O)c4ccc(NCCSc5ccccc5)c(C(F)(F)F)c4)nn3)CC2)c1` [B2R095-01, 6-[4-[[2-[2-(3-Ethoxyphenyl)ethynyl]phenyl]methyl]piperazin-1-yl]-N-[4-(2-phenylsulfanylethylamino)-3-(trifluoromethyl)phenyl]sulfonylpyridazine-3-carboxamide], the “ASMS ratio (%)” value is recorded as 42.2% (n = 1) and 5.5% (n = 2).

As for `CCOc1cccc(-c2ccc(C(C)N3CCN(c4ccc(C(=O)NS(=O)(=O)c5ccc(NCCSc6ccccc6)c(C(F)(F)F)c5)cc4)CC3)cc2)c1` (centres unmarked) [B2R097-01, 4-[4-[1-[4-(3-Ethoxyphenyl)phenyl]ethyl]piperazin-1-yl]-N-[4-(2-phenylsulfanylethylamino)-3-(trifluoromethyl)phenyl]sulfonylbenzamide], the “ASMS ratio (%)” value (n = 1) came out at 6.6% and the “ASMS ratio (%)” value (n = 2) is −7.8%.

With `CCOc1cncc(-c2ccc(C(C)N3CCN(c4ccc(C(=O)NS(=O)(=O)c5ccc(NCCSc6ccccc6)c(C(F)(F)F)c5)cc4)CC3)cc2)c1` (centres unmarked) [B2R098-01, 4-[4-[1-[4-(5-Ethoxypyridin-3-yl)phenyl]ethyl]piperazin-1-yl]-N-[4-(2-phenylsulfanylethylamino)-3-(trifluoromethyl)phenyl]sulfonylbenzamide], the “ASMS ratio (%)” value reads like this: (n = 1) 9.2%; (n = 2) 7.5%.

For the molecule `CCOc1cccc(-c2csc(C(=O)N3CCN(c4ccc(C(=O)N(C)CC56CC7CC(CC(C7)C5)C6)nn4)CC3)c2)c1` [B3A001-01, N-(1-Adamantylmethyl)-6-[4-[4-(3-ethoxyphenyl)thiophene-2-carbonyl]piperazin-1-yl]-N-methylpyridazine-3-carboxamide], the “ASMS ratio (%) n = 1” value came to 0.0% and the “ASMS ratio (%) n = 2” value is on record as −8.4%.

Consider `CCOc1cncc(-c2csc(C(=O)N3CCN(c4ccc(C(=O)N(C)CC56CC7CC(CC(C7)C5)C6)nn4)CC3)c2)c1` [B3A002-01, N-(1-Adamantylmethyl)-6-[4-[4-(5-ethoxypyridin-3-yl)thiophene-2-carbonyl]piperazin-1-yl]-N-methylpyridazine-3-carboxamide], for which the “ASMS ratio (%) n = 1” value is given as 1.9% and the “ASMS ratio (%) n = 2” value is −1.2%.

On to `CCOc1cccc(-c2ccc(C(=O)N3CCN(c4ccc(C(=O)N(C)CC56CC7CC(CC(C7)C5)C6)nn4)CC3)cc2C)c1` [B3A003-01, N-(1-Adamantylmethyl)-6-[4-[4-(3-ethoxyphenyl)-3-methylbenzoyl]piperazin-1-yl]-N-methylpyridazine-3-carboxamide], for which the “ASMS ratio (%) n = 1” value is listed as 6.5% and the “ASMS ratio (%) n = 2” value is listed as 4.9%.

Consider `CCOc1cncc(-c2ccc(C(=O)N3CCN(c4ccc(C(=O)N(C)CC56CC7CC(CC(C7)C5)C6)nn4)CC3)cc2C)c1` [B3A004-01, N-(1-Adamantylmethyl)-6-[4-[4-(5-ethoxypyridin-3-yl)-3-methylbenzoyl]piperazin-1-yl]-N-methylpyridazine-3-carboxamide], for which the “ASMS ratio (%) n = 1” value came out at 3.5% and the “ASMS ratio (%) n = 2” value was −0.5%.

As to `CCOc1cccc(-c2ccc(C(=O)N3CCN(c4ccc(C(=O)N(C)CC56CC7CC(CC(C7)C5)C6)nn4)CC3)cc2F)c1` [B3A005-01, N-(1-Adamantylmethyl)-6-[4-[4-(3-ethoxyphenyl)-3-fluorobenzoyl]piperazin-1-yl]-N-methylpyridazine-3-carboxamide], the “ASMS ratio (%) n = 1” value was −1.5% and the “ASMS ratio (%) n = 2” value is given as −4.8%.

With `CCOc1cncc(-c2ccc(C(=O)N3CCN(c4ccc(C(=O)N(C)CC56CC7CC(CC(C7)C5)C6)nn4)CC3)cc2F)c1` [B3A006-01, N-(1-Adamantylmethyl)-6-[4-[4-(5-ethoxypyridin-3-yl)-3-fluorobenzoyl]piperazin-1-yl]-N-methylpyridazine-3-carboxamide], the “ASMS ratio (%) n = 1” value is given as 0.0% and the “ASMS ratio (%) n = 2” value is listed as 0.0%.

In the case of `CCOc1cccc(C#Cc2ccccc2C(=O)N2CCN(c3ccc(C(=O)N(C)CC45CC6CC(CC(C6)C4)C5)nn3)CC2)c1` [B3A007-01, N-(1-Adamantylmethyl)-6-[4-[2-[2-(3-ethoxyphenyl)ethynyl]benzoyl]piperazin-1-yl]-N-methylpyridazine-3-carboxamide], the “ASMS ratio (%) n = 1” value amounted to 9.1% and the “ASMS ratio (%) n = 2” value is on record as −5.1%.

As to `CCOc1cncc(C#Cc2ccccc2C(=O)N2CCN(c3ccc(C(=O)N(C)CC45CC6CC(CC(C6)C4)C5)nn3)CC2)c1` [B3A008-01, N-(1-Adamantylmethyl)-6-[4-[2-[2-(5-ethoxypyridin-3-yl)ethynyl]benzoyl]piperazin-1-yl]-N-methylpyridazine-3-carboxamide], the “ASMS ratio (%) n = 1” value was 0.6% and the “ASMS ratio (%) n = 2” value was −0.3%.

On to `CCOc1cccc(C#Cc2cncc(C(=O)N3CCN(c4ccc(C(=O)N(C)CC56CC7CC(CC(C7)C5)C6)nn4)CC3)c2)c1` [B3A009-01, N-(1-Adamantylmethyl)-6-[4-[5-[2-(3-ethoxyphenyl)ethynyl]pyridine-3-carbonyl]piperazin-1-yl]-N-methylpyridazine-3-carboxamide], for which the “ASMS ratio (%) n = 1” value is reported as 0.6% and the “ASMS ratio (%) n = 2” value is reported as −0.3%.

For `CCOc1cncc(C#Cc2cncc(C(=O)N3CCN(c4ccc(C(=O)N(C)CC56CC7CC(CC(C7)C5)C6)nn4)CC3)c2)c1` [B3A010-01, N-(1-Adamantylmethyl)-6-[4-[5-[2-(5-ethoxypyridin-3-yl)ethynyl]pyridine-3-carbonyl]piperazin-1-yl]-N-methylpyridazine-3-carboxamide], the “ASMS ratio (%) n = 1” value was 0.0% and the “ASMS ratio (%) n = 2” value stood at 0.0%.

For the molecule `CCOc1cccc(-c2ccccc2CCC(=O)N2CCN(c3ccc(C(=O)N(C)CC45CC6CC(CC(C6)C4)C5)nn3)CC2)c1` [B3A011-01, N-(1-Adamantylmethyl)-6-[4-[3-[2-(3-ethoxyphenyl)phenyl]propanoyl]piperazin-1-yl]-N-methylpyridazine-3-carboxamide], the “ASMS ratio (%) n = 1” value came out at 4.5% and the “ASMS ratio (%) n = 2” value is 2.0%.

In the case of `CCOc1cncc(-c2ccccc2CCC(=O)N2CCN(c3ccc(C(=O)N(C)CC45CC6CC(CC(C6)C4)C5)nn3)CC2)c1` [B3A012-01, N-(1-Adamantylmethyl)-6-[4-[3-[2-(5-ethoxypyridin-3-yl)phenyl]propanoyl]piperazin-1-yl]-N-methylpyridazine-3-carboxamide], the “ASMS ratio (%) n = 1” value is 1.4% and the “ASMS ratio (%) n = 2” value is −2.7%.

On to `CCOc1cccc(-c2ccc(C(=O)N3CCN(c4ccc(C(=O)N(C)CC56CC7CC(CC(C7)C5)C6)nn4)CC3)c3ccccc23)c1` [B3A013-01, N-(1-Adamantylmethyl)-6-[4-[4-(3-ethoxyphenyl)naphthalene-1-carbonyl]piperazin-1-yl]-N-methylpyridazine-3-carboxamide], for which the “ASMS ratio (%) n = 1” value is on record as 10.2% and the “ASMS ratio (%) n = 2” value is listed as −20.0%.

`CCOc1cncc(-c2ccc(C(=O)N3CCN(c4ccc(C(=O)N(C)CC56CC7CC(CC(C7)C5)C6)nn4)CC3)c3ccccc23)c1` [B3A014-01, N-(1-Adamantylmethyl)-6-[4-[4-(5-ethoxypyridin-3-yl)naphthalene-1-carbonyl]piperazin-1-yl]-N-methylpyridazine-3-carboxamide]: the “ASMS ratio (%) n = 1” value came to 0.6% and the “ASMS ratio (%) n = 2” value was 0.8%.

Turning to `CCOc1cccc(-c2cc(C(=O)N3CCN(c4ccc(C(=O)N(C)CC56CC7CC(CC(C7)C5)C6)nn4)CC3)cc(C(C)(C)C)c2)c1` [B3A015-01, N-(1-Adamantylmethyl)-6-[4-[3-tert-butyl-5-(3-ethoxyphenyl)benzoyl]piperazin-1-yl]-N-methylpyridazine-3-carboxamide], the “ASMS ratio (%) n = 1” value is on record as 8.9% and the “ASMS ratio (%) n = 2” value came to 3.0%.
